Source: US12612622B2, “Targeted mutagenesis using base editors” (Qi Biodesign Biotechnology Company Limited, priority 2018, dated 2026)

System: OsACCase gene
Assay: Base editing (pZRH-PBE + individual sgRNAs) of OsACCase functional domain in transgenic M0 rice plants
Format: in vivo
Conditions: for Frequency of indel (%) / Frequency of substitution (%) / No. of WT / No. of indel / No. of substitution: transgenic M0 plants; for No. of WT / No. of indel / No. of substitution: per sgRNA target
Description: For individual cloning, the following method is used. APOBEC1, partial nCas9 and UGI sequences (SEQ ID NO: 129) without BsaI were synthesized commercially (GenScript, Nanjing, China) and cloned into the pUC57 (SEQ ID NO: 130) as intermediate vector. […] The full length APOBEC1-nCas9-UGI was excised using XmaJI and SacI, then was subcloned into pHUE411 that had been digested using the same two enzymes. The resultant vector pZRH-PBE (SEQ ID NO: 133) was used to construct sgRNA expression plasmids using restriction enzyme site BsaI.

[1] = edited allele with the substitution of the same table line

Row | Substance | Frequency of indel (%) | Frequency of substitution (%) | No. of WT | No. of indel | No. of substitution | No. of alleles (unedited target site sequence) | No. of alleles [1] | No. of alleles (edited allele with the substitution of the same table line, edited allele (SEQ ID NO: 77)) | No. of alleles (edited allele with the substitution of the same table line, edited allele (SEQ ID NO: 78)) | No. of alleles (edited allele with the substitution of the same table line, edited allele (SEQ ID NO: 86)) | No. of alleles (edited allele with the substitution of the same table line, edited allele (SEQ ID NO: 87))
1 | R2: sgRNA in pZRH-PBE; OsACCase target site CCGGTGCATACAGCGTCTTGACC (SEQ ID NO: 8) (expressed or natural sequence; target site or template, no part of the molecule) | 0% | 80% | 5 | 0 | 20 | 6 | – | – | – | – | –
2 | R4: sgRNA in pZRH-PBE; OsACCase target site TCTGCACTGAACAAGCTTCTTGG (SEQ ID NO: 11) (expressed or natural sequence; target site or template, no part of the molecule) | 3.1% | 31.3% | 24 | 2 | 6 | 6 | – | – | – | – | –
3 | R5: sgRNA in pZRH-PBE; OsACCase target site CCACATGCAGTTGGGTGGTCCCA (SEQ ID NO: 15) (expressed or natural sequence; target site or template, no part of the molecule) | 0.0% | 65.4% | 18 | 0 | 34 | 12 | – | – | – | – | –
4 | R6: sgRNA in pZRH-PBE; OsACCase target site CCATCTTACTGTTTCAGATGACC (SEQ ID NO: 22) (expressed or natural sequence; target site or template, no part of the molecule) | 14.3% | 19% | 14 | 3 | 4 | 2 | – | – | – | – | –
5 | R7: sgRNA in pZRH-PBE; OsACCase target site CCCTGCTGACCCTGGTCAGCTTG (SEQ ID NO: 27) (expressed or natural sequence; target site or template, no part of the molecule) | 5.9% | 58.8% | 6 | 1 | 10 | 4 | 1 | – | – | – | –
6 | R8: sgRNA in pZRH-PBE; OsACCase target site TTCCTCGTGCTGGACAAGTGTGG (SEQ ID NO: 32) (expressed or natural sequence; target site or template, no part of the molecule) | 10.5% | 59.6% | 17 | 6 | 34 | 9 | – | – | – | – | –
7 | R17: sgRNA in pZRH-PBE; OsACCase target site GGAGCTTATCTTGCTCGACTTGG (SEQ ID NO: 64) (expressed or natural sequence; target site or template, no part of the molecule) | 4.8% | 42.9% | 22 | 2 | 18 | 16 | – | – | – | – | –
8 | R18: sgRNA in pZRH-PBE; OsACCase target site CCGCAAGGGTTAATTGAGATCAA (SEQ ID NO: 68) (expressed or natural sequence; target site or template, no part of the molecule) | 13.0% | 60.9% | 6 | 3 | 14 | 7 | – | – | – | – | –
9 | R19: sgRNA in pZRH-PBE; OsACCase target site TGCTTATTCTAGGGCATATAAGG (SEQ ID NO: 71) (expressed or natural sequence; target site or template, no part of the molecule) | 0.0% | 6.9% | 27 | 0 | 2 | 1 | 1 | – | – | – | –
10 | R20: sgRNA in pZRH-PBE; OsACCase target site TTTACACTTACATTTGTGACTGG (SEQ ID NO: 73) (expressed or natural sequence; the letters are possibly those of the target site) | 0.0% | 16.7% | 11 | 0 | 2 | 2 | 1 | – | – | – | –
11 | R21: sgRNA in pZRH-PBE; OsACCase target site AGCTCCCACATGCAGTTGGGTGG (SEQ ID NO: 76) (expressed or natural sequence; target site or template, no part of the molecule) | 9.5% | 23.8% | 14 | 2 | 5 | 4 | – | 2 | 4 | – | –
12 | R22: sgRNA in pZRH-PBE; OsACCase target site ACTGTTTCAGATGACCTTGAAGG (SEQ ID NO: 79) (expressed or natural sequence; the letters are possibly those of the target site) | 0.0% | 18.8% | 13 | 0 | 3 | 2 | 4 | – | – | – | –
13 | R23: sgRNA in pZRH-PBE; OsACCase target site GCGTTTCTAATATATTGAGGTGG (SEQ ID NO: 81) (expressed or natural sequence; target site or template, no part of the molecule) | 0.0% | 22.2% | 21 | 0 | 6 | 3 | 9 | – | – | – | –
14 | R24: sgRNA in pZRH-PBE; OsACCase target site TATGTTCCTGCCTACATTGGTGG (SEQ ID NO: 83) (expressed or natural sequence; target site or template, no part of the molecule) | 14.3% | 9.5% | 16 | 3 | 2 | 2 | 2 | – | – | – | –
15 | R25: sgRNA in pZRH-PBE; OsACCase target site ACTTCCAGTAACAACACCGTTGG (SEQ ID NO: 85) (expressed or natural sequence; the letters are possibly those of the target site) | 0.0% | 40.0% | 3 | 0 | 2 | 1 | – | – | – | 2 | 1
16 | R26: sgRNA in pZRH-PBE; OsACCase target site AACAACACCGTTGGACCCACCGG (SEQ ID NO: 88) (expressed or natural sequence; target site or template, no part of the molecule) | 0.0% | 71.4% | 2 | 0 | 5 | 4 | 4 | – | – | – | –
